Ends that are not written are not given here.
What was measured:
C57BL/6J-DIO mice = experiment: intraperitoneal glucose tolerance test in DIO mice; format: in vivo, mouse; details: for efficacy in ipGTT eight hours post-drug administration (in words): C57BL/6J-DIO mice, single dose 2.4 nmol/kg
[1] = tested on: lean C57BL/6J, GLP-1R+/+ and GLP-1R-/- mice; experiment: single intracerebroventricular injection: food consumption and body weight; details: lean mice, single ICV 0.025 nmol, up to 72 h
human GLP-1R = human GLP-1R (Homo sapiens, UniProt P43220); experiment: receptor internalization (Nano-Glo HiBiT), human GLP-1R; format: cell-based; parameters: host or cells: HEK293
human GLP-1R, sequence (P43220 24-463): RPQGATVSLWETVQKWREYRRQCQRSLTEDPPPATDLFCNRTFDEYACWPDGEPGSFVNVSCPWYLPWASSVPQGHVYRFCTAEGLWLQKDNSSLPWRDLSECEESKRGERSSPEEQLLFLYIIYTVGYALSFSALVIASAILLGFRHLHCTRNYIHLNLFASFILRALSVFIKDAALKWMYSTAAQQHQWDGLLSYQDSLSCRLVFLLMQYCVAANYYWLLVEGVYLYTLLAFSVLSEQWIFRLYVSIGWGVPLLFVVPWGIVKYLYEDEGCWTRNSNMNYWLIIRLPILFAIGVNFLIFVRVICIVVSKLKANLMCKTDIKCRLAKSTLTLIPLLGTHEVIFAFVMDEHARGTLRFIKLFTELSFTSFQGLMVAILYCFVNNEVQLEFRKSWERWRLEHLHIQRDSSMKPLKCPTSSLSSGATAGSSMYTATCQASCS
Procedure: GLP-1R and GIPR internalization were measured using Promega's Nano-Glo® HiBit extracellular detection system (Promega Corporation; Madison, WI). Hek293 cells were transiently transfected with HiBiT-tagged hGLP-1R or hGIPR plasmids (Promega Corporation; Madison, WI). Cells were lifted using the TrypLE express enzyme (ThermoFisher Scientific) and plated at 80,000-100,000 cells per well in 96 well plates. Cells were then treated with Nano-Glo HibiT extracellular buffer containing LgBiT protein (1:100), and the Nano-Glo HiBiT extracellular substrate (1:50).
GLP-1R and GIPR internalization was measured using Promega's Nano-Glo® HiBit extracellular detection system (Promega Corporation; Madison, WI). HEK293 cells were transiently transfected with low quantities of HiBiT-tagged hGLP-1R or hGIPR plasmids (Promega Corporation; Madison, WI). The next day, cells were lifted using TrypLE express enzyme (ThermoFisher Scientific) and plated at 80,000-100,000 cells per well in 96 well plates.

[2] = tested on: participants with obesity and participants with T2DM; experiment: CT-868-003 crossover study: safety; format: in vivo, human; details: in vivo
Text: Safety assessments of this study included treatment-emergent adverse events (TEAEs), serious adverse events (SAEs), adverse events of special interest (AESI), vital signs, 12-lead electrocardiogram (ECG), clinical lab evaluations, and physical exam.
Safety assessments which occurred throughout the entire study, included monitoring of incidence and severity of AEs, treatment-emergent AEs (TEAEs) and AEs of special interest (AESIs) (e.g., GI events, hypoglycemia), clinical laboratory abnormalities (ECGs, chemistry, hematology, and urinalysis), and changes in vital sign measurements (BP, heart rate, respiratory rate, and aural temperature).
AE terms recorded by the Investigator were coded to system organ class (SOC) and preferred term (PT) using the Medical Dictionary for Regulatory Activities (MedDRA) version 24.0. Severity was collected using the Common Terminology Criteria for AEs (CTCAE) version 5.0 Toxicity Grade. Events with missing severity were summarized as Grade 3. TEAEs summarized by severity counted each participant once for the maximum severity within each SOC and PT within each in-house treatment period and overall. TEAEs marked with a relationship to study treatment as definitely, probable, possible, or missing were considered as related TEAEs. Events with missing relationship to study treatment were summarized as related. The number and percentage of participants with TEAEs were summarized by MedDRA-coded SOCs and PTs.

[3] = pharmacokinetics in CD-1 mice, single SC injection; details: 1 mg/kg SC
Procedure: Blood was kept on ice until centrifuged at 4600 rpm for five minutes at 4° C. Plasma was stored at −80° C. until analysis. Compounds were extracted from plasma and quantified against a standard curve using an AB Sciex 7500+LC-MS/MS system (FIG. 5).

Question: With Exendin-4 [Ex-4, reference compound] as the compound, how does the “efficacy in ipGTT eight hours post-drug administration (in words)” value (C57BL/6J-DIO mice) read?
Answer: The value was “no longer effective”.

Question: And the “food consumption and body weight after ICV injection (in words)” value (shortened to “food consumption and body weight”) [1]?
Answer: Its value is “started to lose efficacy by 48 hours”.

Question: And the “food consumption and body weight” value ([1]; listed as exendin-4)?
Answer: Its value is “significant reduction of cumulative food consumption”.

Question: For “FG-EGT-FTS-DLS-KQM-EEE-AVR-LFI-EWL-LAG-GPS-SGA-PPPS-NH2 (FGEGTFTSDLSKQMEEEAVRLFIEWLLAGGPSSGAPPPS-NH2) [Ex-Phe1, reference compound]”, which “glucose tolerance and body weight vs exendin-4 (in words)” value (C57BL/6J-DIO mice) is on record?
Answer: Its value is “improves glucose tolerance and decreases body weight more than exendin-4”.

Question: And the “efficacy in ipGTT eight hours post-drug administration (in words)” value (C57BL/6J-DIO mice)?
Answer: The value was “remained efficacious”.

Question: What about the “signalling profile at GLP-1R (in words)” value (human GLP-1R) of the same compound?
Answer: The value was “cAMP-biased agonist that prevents receptor internalization”.

Question: And the “food consumption and body weight” value [1]?
Answer: Its value is “remained efficacious”.

Question: What about the “food consumption and body weight” value ([1]; listed as exendin-Phe1) of the same compound?
Answer: Its value is “greater reduction of food intake and much more prolonged body weight reduction as compared to exendin-4”.

Question: What does the source list for CCCCCCCCCCCCCCCC(=O)N[C@@H](CCC(=O)NCCCC[C@H](NC(=O)[C@H](C)NC(=O)[C@H](C)NC(=O)[C@H](CCC(N)=O)NC(=O)CNC(=O)[C@H](CCC(=O)O)NC(=O)[C@H](CC(C)C)NC(=O)[C@H](Cc1ccc(O)cc1)NC(=O)[C@H](CO)NC(=O)[C@H](CO)NC(=O)[C@@H](NC(=O)[C@H](CC(=O)O)NC(=O)[C@H](CO)NC(=O)[C@@H](NC(=O)[C@H](Cc1ccccc1)NC(=O)[C@@H](NC(=O)CNC(=O)[C@H](CCC(=O)O)NC(=O)[C@H](C)NC(=O)[C@@H](N)Cc1cnc[nH]1)[C@@H](C)O)[C@@H](C)O)C(C)C)C(=O)N[C@@H](CCC(=O)O)C(=O)N[C@@H](Cc1ccccc1)C(=O)N[C@H](C(=O)N[C@@H](C)C(=O)N[C@@H](Cc1c[nH]c2ccccc12)C(=O)N[C@@H](CC(C)C)C(=O)N[C@H](C(=O)N[C@@H](CCCNC(=N)N)C(=O)NCC(=O)N[C@@H](CCCNC(=N)N)C(=O)NCC(=O)O)C(C)C)[C@@H](C)CC)C(=O)O [liraglutide, Liraglutide, reference compound]?
Answer: AEs of Special Interest (AESI) Total [2]: 4 (40.0) n (%); Abdominal pain [2]: 0 n (%); Anaemia [2]: 0 n (%); Any AESIs, Grade 2 [2]: 1 (25.0%) n (%); Arthralgia [2]: 0 n (%); At Least 1 Study Drug Related TEAE [2]: 3 (30.0) n (%); At Least 1 TEAE [2]: 7 (70.0) n (%); Back pain [2]: 0 n (%); Blood and lymphatic system disorders [2]: 0 n (%); Chills [2]: 0 n (%); Coagulation test abnormal [2]: 0 n (%); Constipation [2]: 0 n (%); Decreased appetite [2]: 0 n (%); Diarrhoea [2]: 0 n (%); Dizziness [2]: 0 n (%); Eructation [2]: 0 n (%); Gastroesophageal reflux disease [2]: 0 n (%); General disorders and administration site conditions [2]: 0 n (%); Headache [2]: 0 n (%); Hypoglycemia [2]: 3 (30.0) n (%); Infections and infestations [2]: 0 n (%); Injection Site Reaction [2]: 0 n (%); Injection site haemorrhage [2]: 0 n (%); Injection site reactions [2]: 0 n (%); Investigations [2]: 0 n (%); Musculoskeletal and connective tissue disorders [2]: 0 n (%); Nervous system disorders [2]: 0 n (%); Peripheral swelling [2]: 0 n (%); Rash [2]: 0 n (%); SAEs [2]: 0 n (%); Skin hyperpigmentation [2]: 0 n (%); TEAEs leading to drug discontinuation [2]: 0 n (%); Treatment Discontinuation [2]: 0 n (%); Urinary tract infection [2]: 0 n (%); Vomiting [2]: 0 n (%); participants with Grade 1 hypoglycemia events [2]: 3 participants; times more exposure than CT-859 [3]: 6 times
